Source: patent US7105521B2, “Eugenosedin-A based pharmacoligical agents” (Syn-Tech Chem & Pharm Co., Ltd., priority 2003, dated 2006)

What was measured:
[1] = tested on: α1 receptors; assay: Receptor binding, [3H]prazosin, rat cortex; design: species or system Wistar rat
Method: (§1) Drugs and chemicals. […] Eugenosedin-A synthesized in this laboratory was solvated in 50% absolute alcohol, 10% propylene glycol and further diluted with distilled water. All of the [^3H] ligand was purchased from New England Nuclear Corp. (Boston, Mass., U.S.A.).
(§2) Receptor binding studies. […] The homogenate was pressure filtered through muslin. Filtrate was centrifuged at 1000 g for 10 min. Supernatant was centrifuged at 10,000 g for 12 min at 4° C. The second supernatant was centrifuged at 30,000 g for 15 min at 4° C. The final pellet was re-suspended in assay buffer (75 mM Tris HCl, 25 mM MgCl2, pH 7.4). Protein content was determined by Bradford's method. Radioligand agents and membranes (200–300 μg) were incubated for 60 min at 25° C. with or without the addition of nonspecific binding agents, in a 75 mM Tris HCl buffer with 25 mM MgCl2, to make a final volume of 500 μl. In competitive-binding experiments, the competing agent was added directly to the incubation mixture. Incubation was terminated by addition of 1 ml of ice-cold assay buffer followed by immediate filtration through Whatman GF/C glass fiber filters supported on a 12-port filter manifold (Millipore). The filters were immediately washed 3 times with 5 ml of ice-cold assay buffer and dried in an oven at 60° C. for 2 hours before adding 5 ml of Triton-toluene-based scintillation fluid. Membrane-bound radioligand trapped in the filters was counted in a Beckman LS6500 scintillation system (Fullerton, Calif., U.S.A) with an efficiency of 45%. In each experiment, nonspecifically bound radioligand agents were determined by incubating membrane protein. Specific binding for each sample was obtained by deducting this value from the total binding of radioligand agents.

[2] = tested on: α2 receptors; assay: Receptor binding, [3H]yohimbine, rat cortex; design: species or system Wistar rat
Method: as §1, §2

[3] = biological target: 5-HT2A receptor (Rattus norvegicus, UniProt P14842); assay: Receptor binding, [3H]ketanserin, rat cortex; design: from tissue; host or cells: Wistar rat cortex membranes; species or system Wistar rat; conditions: [3H]ketanserin, rat cortex
Sequence of 5-HT2A receptor (P14842 whole entry): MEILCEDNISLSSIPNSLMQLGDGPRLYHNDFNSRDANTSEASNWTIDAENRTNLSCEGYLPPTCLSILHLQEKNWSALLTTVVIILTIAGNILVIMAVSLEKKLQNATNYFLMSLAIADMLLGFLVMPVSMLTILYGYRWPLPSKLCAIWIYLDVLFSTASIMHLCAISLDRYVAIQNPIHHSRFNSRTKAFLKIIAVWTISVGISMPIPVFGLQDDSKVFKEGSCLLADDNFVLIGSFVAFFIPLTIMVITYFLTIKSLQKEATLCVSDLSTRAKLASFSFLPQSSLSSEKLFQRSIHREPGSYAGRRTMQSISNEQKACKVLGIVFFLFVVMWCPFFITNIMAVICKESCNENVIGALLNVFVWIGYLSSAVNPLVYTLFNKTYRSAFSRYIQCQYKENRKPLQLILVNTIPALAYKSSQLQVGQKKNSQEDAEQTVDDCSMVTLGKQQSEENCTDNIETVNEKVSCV
Method: as §1, §2

[4] = LPS-induced hypotension; type: in vivo, Wistar rats; conditions: LPS 10 mg kg^−1 i.v.; for LPS-induced hypotension: 15 mg kg^−1 i.v.; for development of hypotension after LPS injection and normalization of BP: i.v. pretreatment; for second prolonged hypotensive phase after LPS: pretreatment 0.5 and 1 mg kg^−1 i.v.
Method: Intravenous injection. The experiments were carried out as previously described (Wu B N. et al., Biochem. Pharmacol., 48:101–109, 1994). In brief, Wistar rats weighing 250–300 grams were anesthetized with pentobarbital sodium (50 mg kg^−1, i.p.). Following tracheal cannulation, systemic arterial BP and HR were recorded from the femoral artery by a pressure transducer (model P10EZ; Spectramed, Oxnard, Calif., U.S.A.) connected to a recorder (GOULD, Valley View, Ohio, Model P50). Body temperature was maintained at 37° C. by an electric heating pad. A femoral vein was cannulated for intravenous injection of drugs and LPS (10 mg kg^−1).

[5] = tested on: IL-1β; assay: Plasma cytokine immunoreactivity after LPS: IL-1β; type: in vivo, Wistar rats; conditions: 3 hours after LPS 10 mg kg^−1 i.v.; pretreatment (eugenosedin-A 1 mg kg^−1 i.v.)
Method: (§3) Plasma cytokine immunoreactivity and blood glucose. Blood was collected from venous cannula, injected into ice-cold heparinized Eppendorf tubes and centrifuged at 1500 rpm for 10 min at 4° C. Plasma supernatant was stored at −70° C. until analyzed. Solid phase enzyme immunoassay that specifically detects murine IL-1β, IL-6, IFN-γ and TNF-α was used with a detection limit of >10 pg/ml (Endogen, U.S.A). Pretreatment with eugenosedin-A and other agents was performed 15 minutes before intravenous injection of LPS. Blood was collected from venous cannula. Blood glucose was measured with a glucose test strip (Glucotide, Bayer, U.S.A) at 1, 3 and 5 hours.

[6] = tested on: TNF-α; assay: Plasma cytokine immunoreactivity after LPS: TNF-α; type: in vivo, Wistar rats
Method: as §3

[7] = Blood glucose after LPS; type: in vivo, Wistar rats; conditions: for initial hyperglycemic response to LPS: blood glucose at 1 and 3 hours after LPS; for hypoglycemic response to LPS: blood glucose at 5 hours after LPS
Method: as §3

[8] = tested on: IFN-γ; assay: Plasma cytokine immunoreactivity after LPS: IFN-γ; type: in vivo, Wistar rats; conditions: 1 hour after LPS administration
Method: as §3

[9] = Micro-injection in NTS: BP and HR; type: in vivo, rats; conditions: for pressor response and HR: NTS micro-injection, 0.03, 0.3 μmol, within 30 minutes after injection
Text: Micro-injection in NTS. Rats were anesthetized and placed in a David-Kopf stereotaxic instrument. The cerebellum was exposed after removing the skin and occipital bone. […] At the end of experiments, the animals were sacrificed. The brain was removed and sectioned for histological confirmation of the drug application site.

[10] = Intra-cisternal injections: mean arterial BP and HR; type: in vivo, rats; conditions: for effect on mean arterial BP and HR: eugenosedin-A and trazodone 0.3, 0.03 μmol, yohimbine 0.03 μmol
Method: (§4) Intra-cisternal injections. […] Briefly, rats weighing 250–300 g were anaesthetized with pentobarbital sodium (50 mg kg^−1, i.p.) and mounted in a David-Kopf stereotaxic instrument (Yeh J L. et al., Brain. Res. Bull., 30:641–648, 1993). The calvarium was exposed and a 1 mm diameter trephine hole was drilled 1.8 mm lateral to the coronary and 1.5 mm posterior to the sagittal sutures. A cannula (0.7 mm O.D.) connected to a Hamilton syringe (RN-705, 5051) by PE-50 was advanced 4.7 mm into the brain using the electrode carrier.

[11] = tested on: α2-adrenoceptor; assay: Intra-cisternal antagonism of clonidine-induced hypotension and bradycardia; type: in vivo, rats; conditions: for hypotensive effect of clonidine: given 15 min before clonidine injection
Method: as §4

[12] = Peroxyl radical scavenging, B-phycoerythrin/AAPH; type: biochemical
Method: The stoichiometric factors of the test compounds with hydrophilic peroxyl radicals were calculated by the equation as mentioned Ascorbic acid was used as a positive control.

[13] = 3 hours after LPS 10 mg kg^−1 i.v., pretreatment (eugenosedin-A 1 mg kg^−1 i.v.)
[14] = 5 hours after LPS 10 mg kg^−1 i.v., pretreatment

What does the source list for `NCCc1c[nH]c2ccc(O)cc12` [Compound 5-HT, serotonin]?
binding affinity for α1 receptors [1]: lower binding affinities for α1 receptors; order of α1 receptor binding potency [1]: prazosin >ketanserin >eugenosedin-A >methylsergide, propranolol and 5-HT; order of α2 receptor binding potency [2]: prazosin >eugenosedin-A >ketanserin >methylsergide >propranolol and 5-HT; order of potency on 5-HT2A receptors [3]: ketanserin >methylsergide >eugenosedin-A >5-HT >propranolol >prazosin

For `Cl.N=C(N)NN` [aminoguanidine, aminoguanidine HCl], which LPS-induced hypotension [4] is on record?
The LPS-induced hypotension was “inhibited LPS-induced hypotension”.

And the “LPS-induced increase in IL-1β” value [5]?
Its value is “significantly inhibited”.

What about the “LPS-induced increase in TNF-α” value [6, 13] of the same molecule?
Its value is “significantly inhibited”.

What about the “initial hyperglycemic response to LPS” value [7] of the same molecule?
Its value is “inhibited the initial hyperglycemic response to LPS”.

What about the “hypoglycemic response to LPS” value [7] of the same molecule?
The value was “did not reverse the hypoglycemic response”.

With `O=C1O[C@H]([C@@H](O)CO)C(O)=C1O` [ascorbic acid] as the molecule, how does the LPS-induced hypotension [4] read?
Its LPS-induced hypotension is “inhibited LPS-induced hypotension”.

And the “LPS-induced increase in IL-1β” value [5]?
The value was “significantly inhibited”.

And the “LPS-induced production of IFN-γ” value [8]?
Its value is “insignificantly enhanced”.

What about the “LPS-induced increase in TNF-α” value [6, 13] of the same molecule?
Its value is “significantly inhibited”.

What about the “initial hyperglycemic response to LPS” value [7] of the same molecule?
The value was “inhibited the initial hyperglycemic response to LPS”.

What about the “hypoglycemic response to LPS” value [7] of the same molecule?
The value was “did not reverse the hypoglycemic response”.

Which “pressor response and HR” value [9] does the source give for `CNCCC(Oc1ccc(C(F)(F)F)cc1)c1ccccc1` (stereo not shown) [fluoxetine] here?
Its value is “mild, but significant, pressor responses and increased the HR”.

What does the source list for `O=C(c1ccc(F)cc1)C1CCN(CCn2c(=O)[nH]c3ccccc3c2=O)CC1` [ketanserin]?
order of α1 receptor binding potency [1]: prazosin >ketanserin >eugenosedin-A >methylsergide, propranolol and 5-HT; binding affinity for α2-adrenoceptors [2]: had binding affinities for α2-adrenoceptors; order of α2 receptor binding potency [2]: prazosin >eugenosedin-A >ketanserin >methylsergide >propranolol and 5-HT; order of potency on 5-HT2A receptors [3]: ketanserin >methylsergide >eugenosedin-A >5-HT >propranolol >prazosin

What does the source list for `CC[C@@H](CO)NC(=O)[C@@H]1C=C2c3cccc4c3c(cn4C)C[C@H]2N(C)C1` [methysergide]?
binding affinity for α1 receptors [1]: lower binding affinities for α1 receptors; order of α1 receptor binding potency [1]: prazosin >ketanserin >eugenosedin-A >methylsergide, propranolol and 5-HT; binding affinity for α2-adrenoceptors [2]: had binding affinities for α2-adrenoceptors; order of α2 receptor binding potency [2]: prazosin >eugenosedin-A >ketanserin >methylsergide >propranolol and 5-HT

What does the source list for `CC(C)NCC(O)COc1cccc2ccccc12` (stereo not shown) [propranolol]?
order of α1 receptor binding potency [1]: prazosin >ketanserin >eugenosedin-A >methylsergide, propranolol and 5-HT; order of α2 receptor binding potency [2]: prazosin >eugenosedin-A >ketanserin >methylsergide >propranolol and 5-HT

What does the source list for `O=c1n(CCCN2CCN(c3cccc(Cl)c3)CC2)nc2ccccn12` [trazodone]?
effect on mean arterial BP and HR [10]: increased mean arterial BP and HR; hypotensive effect of clonidine [11]: antagonized the hypotensive effect of clonidine; pressor response and HR [9]: mild, but significant, pressor responses and increased the HR; scavenging of AAPH-derived peroxyl radicals (B-phycoerythrin fluorescence, lag time) [12]: did not scavenge peroxyl radicals; development of hypotension after LPS injection and normalization of BP [4]: normalized BP within 5 hours; first immediate hypotensive phase after LPS ([4]; pretreatment 0.5 mg kg^−1 i.v.): not affected; first immediate hypotensive phase after LPS ([4]; pretreatment 1 mg kg^−1 i.v.): attenuated it; second prolonged hypotensive phase after LPS [4]: significantly reduced; LPS-induced increase in IL-1β [5]: significantly inhibited; LPS-induced increase in TNF-α [6, 13]: significantly inhibited; LPS-induced increase in TNF-α [6, 14]: significantly reduced

What does the source list for `COC(=O)[C@@H]1[C@H]2C[C@H]3c4[nH]c5ccccc5c4CCN3C[C@@H]2CC[C@@H]1O` [yohimbine]?
increase of HR ([10]; 0.03 μmol): up to 78 bpm; pressor response ([10]; 0.03 μmol): up to 13 mmHg; effect on mean arterial BP and HR [10]: increased mean arterial BP and HR; hypotensive effect of clonidine [11]: antagonized the hypotensive effect of clonidine; clonidine-induced bradycardia ([11]; low dose, 0.03 μmol): did not inhibit clonidine-induced bradycardia; HR increase ([9]; NTS micro-injection, 0.03 μmol): up to 78 bpm; pressor response ([9]; NTS micro-injection, 0.03 μmol): up to 13 mmHg; development of hypotension after LPS injection and normalization of BP [4]: normalized BP within 5 hours; first immediate hypotensive phase after LPS ([4]; pretreatment 0.5 mg kg^−1 i.v.): not affected; first immediate hypotensive phase after LPS ([4]; pretreatment 1 mg kg^−1 i.v.): attenuated it; second prolonged hypotensive phase after LPS [4]: significantly reduced; LPS-induced increase in IL-1β [5]: significantly inhibited; LPS-induced production of IFN-γ [8]: insignificantly enhanced; LPS-induced increase in TNF-α [6, 13]: significantly inhibited; LPS-induced increase in TNF-α [6, 14]: significantly reduced
